Broadly, the EC50 is the concentration at which the effect is half-maximal.

Square brackets hold non-standard residues; d marks the D form. Peptide text beside a SMILES is read from it. βAla = NCCC(=O)O Where only a bound is given, the exact number is not on record here.

The subject of one data set is plasma PTH. The data set is described as follows: In vivo PTH lowering after IV bolus in isoflurane-anesthetized normal Sprague Dawley rats. The conditions noted are these: for 0.5 mg/kg IV bolus % PTH AUC of saline control: normal rats, AUC 1-4 h. Also noted: species or system rat. The gist of the method: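 Peptides were given as a 0.5 mg/kg IV bolus to normal Sprague Dawley rats kept under isoflurane throughout, with saline bolus controls.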

Data set [1] addresses T1, human calcium-sensing receptor (CaSR) (Homo sapiens, UniProt P41180).
T1 construct: expressed in transfected cells; host or cells: HEK 293T cells, transiently transfected (lipofectamine 2000); in some cases HEK293 cells stably transfected
T1 sequence (P41180 20-1078): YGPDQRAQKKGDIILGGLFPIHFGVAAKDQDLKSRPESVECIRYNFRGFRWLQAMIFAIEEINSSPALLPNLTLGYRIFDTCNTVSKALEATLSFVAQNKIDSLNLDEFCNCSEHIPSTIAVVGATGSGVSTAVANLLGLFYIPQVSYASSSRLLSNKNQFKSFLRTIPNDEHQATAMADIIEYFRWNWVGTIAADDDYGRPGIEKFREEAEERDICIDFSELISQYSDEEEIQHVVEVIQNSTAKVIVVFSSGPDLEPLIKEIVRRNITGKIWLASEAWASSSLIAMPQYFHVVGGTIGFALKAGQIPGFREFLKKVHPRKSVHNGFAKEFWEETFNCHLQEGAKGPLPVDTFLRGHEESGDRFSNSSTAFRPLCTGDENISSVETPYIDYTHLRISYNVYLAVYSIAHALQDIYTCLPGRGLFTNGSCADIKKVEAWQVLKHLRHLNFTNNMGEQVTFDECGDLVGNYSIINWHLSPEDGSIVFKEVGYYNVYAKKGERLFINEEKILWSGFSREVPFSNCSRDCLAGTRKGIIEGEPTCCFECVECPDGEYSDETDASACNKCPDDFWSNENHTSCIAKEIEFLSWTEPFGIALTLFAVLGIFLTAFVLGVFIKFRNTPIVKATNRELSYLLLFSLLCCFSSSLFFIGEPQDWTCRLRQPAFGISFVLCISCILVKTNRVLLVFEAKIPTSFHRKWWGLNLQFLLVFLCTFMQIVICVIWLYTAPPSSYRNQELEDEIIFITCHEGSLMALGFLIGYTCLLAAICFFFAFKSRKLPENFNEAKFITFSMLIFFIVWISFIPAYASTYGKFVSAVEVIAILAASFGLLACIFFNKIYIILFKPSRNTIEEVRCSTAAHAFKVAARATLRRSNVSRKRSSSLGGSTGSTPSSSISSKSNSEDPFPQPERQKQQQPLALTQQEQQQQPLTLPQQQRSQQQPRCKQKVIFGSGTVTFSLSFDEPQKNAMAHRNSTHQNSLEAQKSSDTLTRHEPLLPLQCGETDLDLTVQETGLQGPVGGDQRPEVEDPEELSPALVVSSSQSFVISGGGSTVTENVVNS
Kind of data set: In vitro cell assay in HEK-293 expressing the human calcium-sensing receptor (IP1 production). In kind it is cell-based. The conditions noted are these: for EC50: Table 5, IP1 production in HEK293 cells expressing human CaSR, eight concentrations in duplicate, read-out: EC50 in CaSR in vitro assay. The procedure:
The activity of a variety of peptides and conjugates was tested against the human CaSR. These studies were conducted by measuring IP1 production in HEK293 cells that express the human CaSR. Each peptide was tested in eight different concentrations, in duplicates, to establish a dose response curve. Curve fitting was performed using GraphPad Prism. In Table 5, and throughout the specification, residues provided in capital letters are L-amino acids, while lower case letters indicate D-amino acids. “Ac” indicates an acetyl capping group, “NH2” indicates an amide capping group, “Ac-bAla” is an acetylated beta-alanine, “GSH” indicates reduced glutathione, “GS” indicates oxidized glutathione, “PEG” refers to polyethylene glycol, “PEG2” and “PEGS” refer to polyethylene glycol moieties of 2 kDa and 5 kDa, respectively, and “Mpa” refers to mercaptopropionic acid.
The day after, these cells were transfected with human CaSR receptor using lipofectamine 2000 transfection reagent 24 hrs post transfection, cells were seeded in 384 well plates at 8,000 cells/well. […] In some cases, EC50 values were determined by measuring inositol monophosphate production in the HEK293 cells, stably transfected with the human calcium-sensing receptor (see Table 1).
Cells were incubated with compounds at various concentrations (1 mM or 300 μM as the highest and further ½ log serial dilutions) at 37° C. for 1.5 hrs before reaction termination. […] In brief, incubation with the compound was terminated by sequentially adding D2 labeled-IP1 and cryptate-labeled anti-IP1 in lysis buffer and further incubating at room temperature for 60 minutes. […] Non-transfected 293 cells were used as negative control.
IP1 concentrations were calculated from standard curves (generated with Graph Pad Prism ver. 4) using known concentrations of IP1 standards.

The test system of data set [2] is rat peritoneal mast cells. Kind of data set: In vitro histamine induction in rat peritoneal mast cells. In kind it is cell-based. Put shortly:
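Mast cells from peritoneal lavage of Sprague Dawley rats were incubated with compound at 10 μM for 15 min at 37 °C in HBSS + 25 mM HEPES pH 7.4. Supernatant histamine measured by EIA; response expressed as fold change versus pre-incubation levels.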

On to `CC(=O)N[C@H](C)C(=O)N[C@H](CCCNC(=N)N)C(=O)N[C@H](CCCNC(=N)N)C(=O)N[C@H](CCCNC(=N)N)C(=O)N[C@H](C)C(=O)N[C@H](CCCNC(=N)N)C(N)=O` [SEQ ID NO: 29, Ac-arrrar-NH2] (Ac-[dA][dR][dR][dR][dA][dR]-NH2), for which the “PTH-lowering activity in normal rats” value in the data set on plasma PTH (9 mg/kg IV bolus, FIG. 2B) was “did not reduce PTH concentration”. Also, the “potency to activate the human CaSR in vitro” value in data set [1] (HEK-293 cell assay) is reported as “dramatically reduced the ability of the compound to activate the CaSR”. In data set [1], the EC50 was more than 1000 µM.
Regarding `CC(=O)NCCC(=O)N[C@H](CS)C(=O)N[C@H](CCCNC(=N)N)C(=O)N[C@H](CCCNC(=N)N)C(=O)N[C@H](CCCNC(=N)N)C(=O)N[C@H](CCCNC(=N)N)C(=O)N[C@H](CCCNC(=N)N)C(=O)N[C@H](CCCNC(=N)N)C(N)=O` [SEQ ID NO: 30, Ac-bAla-crrrrrr-NH2] (Ac-[βAla][dC][dR][dR][dR][dR][dR][dR]-NH2), the “0.5 mg/kg IV bolus % PTH AUC of saline control” value (“0.5 mg/kg IV bolus % PTH AUC” below) with plasma PTH (Table 3) is listed as 0%. In addition, the EC50 in data set [1] is 1 µM.
In the case of `CC(=O)N[C@H](CCS)C(=O)N[C@H](CCCNC(=N)N)C(=O)N[C@H](CCCNC(=N)N)C(=O)N[C@H](CCCNC(=N)N)C(=O)N[C@H](CCCNC(=N)N)C(=O)N[C@H](CCCNC(=N)N)C(=O)N[C@H](CCCNC(=N)N)C(N)=O` [SEQ ID NO: 32, Ac-dHcy-rrrrrr-NH2], in the data set with plasma PTH (Table 3), the “0.5 mg/kg IV bolus % PTH AUC” value worked out at 21%. The EC50 in data set [1] was 2 µM.
`CC(=O)N[C@H](CS)C(=O)N[C@H](Cc1ccc(O)cc1)C(=O)NCC(=O)N[C@H](CCCNC(=N)N)C(=O)N[C@H](CCCCN)C(=O)N[C@H](CCCCN)C(=O)N[C@H](CCCNC(=N)N)C(=O)N[C@H](CCCNC(=N)N)C(=O)N[C@H](CCC(N)=O)C(=O)N[C@H](CCCNC(=N)N)C(=O)N[C@H](CCCNC(=N)N)C(=O)N[C@H](CCCNC(=N)N)C(N)=O` [SEQ ID NO: 50, Ac-cygrkkrrqrrr-NH2]: in data set [1], the EC50 is 2 µM.
For the compound `CC(=O)N[C@H](CSSCCC(=O)O)C(=O)N[C@H](C)C(=O)N[C@H](CCCNC(=N)N)C(=O)N[C@H](CCCNC(=N)N)C(=O)N[C@H](CCCNC(=N)N)C(=O)N[C@H](C)C(=O)N[C@H](CCCNC(=N)N)C(N)=O` [SEQ ID NO: 56, Ac-c(Mpa)arrrar-NH2], the “0.5 mg/kg IV bolus % PTH AUC” value in the data set with plasma PTH (Table 8) is 25%. Further, the EC50 in data set [1] was determined as 21 µM.
On to `CC(=O)N[C@H](CS)C(=O)N[C@@H](C(=O)N[C@H](CCCNC(=N)N)C(=O)N[C@H](CCCNC(=N)N)C(=O)N[C@H](CCCNC(=N)N)C(=O)N[C@@H](C(=O)N[C@H](CCCNC(=N)N)C(N)=O)C(C)C)C(C)C` [SEQ ID NO: 65, Ac-cvrrrvr-NH2] (Ac-[dC][dV][dR][dR][dR][dV][dR]-NH2), for which the EC50 in data set [1] came to 35 µM.
Consider `CC(=O)N[C@H](CS)C(=O)N[C@H](CCC(=O)O)C(=O)N[C@H](CCCNC(=N)N)C(=O)N[C@H](CCCNC(=N)N)C(=O)N[C@H](CCCNC(=N)N)C(=O)N[C@H](C)C(=O)N[C@H](CCCNC(=N)N)C(N)=O` [SEQ ID NO: 69, Ac-cerrrar-NH2] (Ac-[dC][dE][dR][dR][dR][dA][dR]-NH2), for which the “0.5 mg/kg IV bolus % PTH AUC” value in the data set on plasma PTH (Table 6) is 103%. In addition, the concentration for a half-maximal effect (EC50) in data set [1] is 31 µM.
Turning to `CC(=O)N[C@H](CS)C(=O)N[C@H](C)C(=O)N[C@H](CCCCN)C(=O)N[C@H](CCCNC(=N)N)C(=O)N[C@H](CCCNC(=N)N)C(=O)N[C@H](C)C(=O)N[C@H](CCCNC(=N)N)C(N)=O` [SEQ ID NO: 72, Ac-cakrrar-NH2] (Ac-[dC][dA][dK][dR][dR][dA][dR]-NH2), in data set [1], the 50% effective concentration (EC50) came out at 35 µM. Further, the “Histamine in vitro Fold change of non-treated at 10 uM” value in data set [2] is given as 1.1 fold.
On to `CC(=O)N[C@H](CS)C(=O)N[C@H](C)C(=O)N[C@H](CCCNC(=N)N)C(=O)N[C@H](CCCCN)C(=O)N[C@H](CCCNC(=N)N)C(=O)N[C@H](C)C(=O)N[C@H](CCCNC(=N)N)C(N)=O` [SEQ ID NO: 73, Ac-carkrar-NH2] (Ac-[dC][dA][dR][dK][dR][dA][dR]-NH2), for which, in data set [1], the EC50 turned out to be 31 µM. Also, the “Histamine in vitro Fold change of non-treated at 10 uM” value in data set [2] came to 1.4 fold.
`CC(=O)N[C@H](CS)C(=O)N[C@H](C)C(=O)N[C@H](CCCNC(=N)N)C(=O)N[C@H](CCCNC(=N)N)C(=O)N[C@H](CCCNC(=N)N)C(=O)N[C@H](C)C(=O)N[C@H](CCCNC(=N)N)C(=O)O` [SEQ ID NO: 74, Ac-carrrar-OH]: in data set [1], the EC50 is 31 µM.
Still for that read-out and setting: to `CC(=O)N[C@H](CS)C(=O)N[C@H](C)C(=O)N[C@H](C)C(=O)N[C@H](CCCNC(=N)N)C(=O)N[C@H](CCCNC(=N)N)C(=O)N[C@H](CCCNC(=N)N)C(=O)N[C@H](CCCNC(=N)N)C(=O)N[C@H](CCCNC(=N)N)C(=O)N[C@H](CCCNC(=N)N)C(N)=O` [SEQ ID NO: 76, Ac-caarrrrrr-NH2] (Ac-[dC][dA][dA][dR][dR][dR][dR][dR][dR]-NH2) belongs 4.5 µM.
On to `CC(=O)N[C@H](CS)C(=O)N[C@H](C)C(=O)N[C@H](CCCNC(=N)N)C(=O)N[C@H](C)C(=O)N[C@H](CCCNC(=N)N)C(=O)N[C@H](C)C(=O)N[C@H](CCCNC(=N)N)C(=O)N[C@H](C)C(=O)N[C@H](CCCNC(=N)N)C(N)=O` [SEQ ID NO: 78, Ac-carararar-NH2] (Ac-[dC][dA][dR][dA][dR][dA][dR][dA][dR]-NH2), for which the EC50 in data set [1] worked out at 5.3 µM.
On to `CC(=O)N[C@H](CS)C(=O)N[C@H](C)C(=O)N[C@H](CCCNC(=N)N)C(=O)N[C@H](CCCNC(=N)N)C(=O)N[C@H](CCCNC(=N)N)C(=O)N[C@H](C)C(=O)N[C@H](CCCNC(=N)N)C(=O)N[C@H](C)C(=O)N[C@H](CCCNC(=N)N)C(N)=O` [SEQ ID NO: 79, Ac-carrrarar-NH2] (Ac-[dC][dA][dR][dR][dR][dA][dR][dA][dR]-NH2), for which the EC50 in data set [1] came out at 13 µM.
For the compound `N=C(N)NCCC[C@@H](NC(=O)[C@@H](CCCNC(=N)N)NC(=O)[C@@H](CCCNC(=N)N)NC(=O)[C@@H](CCCNC(=N)N)NC(=O)[C@@H](CCCNC(=N)N)NC(=O)[C@@H](CCCNC(=N)N)NC(=O)[C@H](N)CS)C(N)=O` [SEQ ID NO: 80, crrrrrr-NH2], in data set [1], the EC50 was 1.1 µM.
On the same count and under the same terms, to “Ac-c(PEG2-C)arrrar-NH2 (XXXXXXX; D-residues) [SEQ ID NO: 57]” belongs 2.3 µM; to “Ac-c(PEG2-C)rrrrrr-NH2 (XXXXXXX; D-residues) [SEQ ID NO: 59]”, 0.02 µM.

For the origin of these results see patent US10280198B2, “Therapeutic agents for reducing parathyroid hormone levels” (KAI PHARMACEUTICALS, INC., priority 2009, dated 2019).
